Measurements: patent US20190100534A1, “Cephem Compounds with Latent Reactive Groups” (Gladius Pharmaceuticals, Inc., priority 2017, published 2019)

Tests used:
[1] = test system: Isogenic E. coli J58 strain carrying IMP-1; experiment: MIC determination, isogenic E. coli strains; type: cell-based
Outline: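 Broth microdilution in cation-adjusted Mueller-Hinton broth with 20 μM apo-transferrin, compound serially diluted two-fold from 64 μg/mL, against E. coli J53 carrying plasmid-borne IMP-1. Inoculum adjusted to 0.5 McFarland; plates incubated 18 h at 37° C. MIC taken as lowest concentration giving a clear well.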

KP(ATCC TEM-10/TEM-12) = type: cell-based, Klebsiella pneumoniae; details: CAMH broth, 20 μM Apo-Transferrin, 37° C., 18 hours
Protocol: (§1) Sterile technique was used throughout these experiments. Suspensions of organisms were removed from storage (−80° C.) and partially thawed. Partially thawed organisms (1 μL) were inoculated into 3 mL sterile LB Broth in a sterile culture tube and capped, then cultured at 37° C. with shaking for 4-5 hours until the optical density at 600 nm (OD600) was greater than 0.1 on a single beam spectrophotometer.
(§2) The concentration of organisms was adjusted to 0.08-0.1 OD600 (0.5 McFarland units) by dilution with sterile cation-adjusted Meuller-Hinton (CAMH) broth. The suspensions were used within 30 minutes of preparation.
(§3) A stock solution was made of each test compound by measuring 6.4 mg of the compound on an analytical balance and dissolving it in DMSO (1 mL) to get a transparent solution. The solutions were stored at −20° C. and thawed prior to use.
(§4) Sterile CAMH broth (200 μL) containing 20 μM Apo-Transferrin was pipetted into the first row of 8 columns of a sterile, round-bottomed, transparent, 96-well microplate using an 8-channel pipette equipped with sterile tips. One hundred μL was pipetted into the wells of the remaining 11 rows.
(§5) With an 8-channel pipette equipped with sterile tips, 100 μL of the first row solution was transferred to the second row and mixed. The process was repeated for the second to third rows and continued through row 11. One hundred μL from row 11 was removed and discarded so that all 12 rows contained 100 μL. Row 12 contained no compound and rows 1-11 contained 64, 32, 16, 8, 4, 2, 1, 0.5, 0.25, 0.125, […] of a given compound.
(§6) Inoculant suspensions (0.5 μL) were added to the 12 wells of each column. The plates were then covered and incubated at 37° C. overnight for 18 hours.
(§7) For each organism the MIC was determined by identifying the transparent well with the lowest test compound concentration.

[2] = test system: A. baumannii (JMI OXA-58); experiment: MIC determination; type: cell-based, Acinetobacter baumannii; details: Acinetobacter baumannii, class D carbapenemase producer, CAMH broth, 20 μM Apo-Transferrin, 37° C., 18 hours, read-out: Minimum Inhibitory Concentrations, A. baumannii (JMI OXA-58)
Protocol: as §1, §2, §3, §4, §5, §6, §7

A. baumannii = experiment: MIC determination; type: cell-based, Acinetobacter baumannii; details: for MIC: Acinetobacter baumannii, A. baumannii, CAMH broth, 20 μM Apo-Transferrin, 37° C., 18 hours, read-out: Minimum Inhibitory Concentrations, A. baumannii
Protocol: as §1, §2, §3, §4, §5, §6, §7

EC(JMI OXA-48) = experiment: MIC determination; type: cell-based, Escherichia coli; details: Escherichia coli, CAMH broth, 20 μM Apo-Transferrin, 37° C., 18 hours, read-out: Minimum Inhibitory Concentrations, EC(JMI OXA-48)
Protocol: as §1, §2, §3, §4, §5, §6, §7

KP (ATCC KPC-3) = experiment: MIC determination; type: cell-based, Klebsiella pneumoniae; details: CAMH broth, 20 μM Apo-Transferrin, 37° C., 18 hours
Protocol: as §1, §2, §3, §4, §5, §6, §7

KP(JMI KPC-2) = experiment: MIC determination; type: cell-based, Klebsiella pneumoniae; details: CAMH broth, 20 μM Apo-Transferrin, 37° C., 18 hours
Protocol: as §1, §2, §3, §4, §5, §6, §7

KP(GJ 5934 TEM-26) = experiment: MIC determination; type: cell-based, Klebsiella pneumoniae; details: CAMH broth, 20 μM Apo-Transferrin, 37° C., 18 hours
Protocol: as §1, §2, §3, §4, §5, §6, §7

KP (GJ 5659 TEM-26) = experiment: MIC determination; type: cell-based, Klebsiella pneumoniae; details: CAMH broth, 20 μM Apo-Transferrin, 37° C., 18 hours
Protocol: as §1, §2, §3, §4, §5, §6, §7

ENC (ATCC NDM-1) = experiment: MIC determination; type: cell-based, Enterobacter cloacae; details: CAMH broth, 20 μM Apo-Transferrin, 37° C., 18 hours
Protocol: as §1, §2, §3, §4, §5, §6, §7

EA (URMC -3) = experiment: MIC determination; type: cell-based; details: CAMH broth, 20 μM Apo-Transferrin, 37° C., 18 hours
Protocol: as §1, §2, §3, §4
To each well of the first row was pipetted 2.0 μL of the 6.4 mg/mL stock test compound stock solution to give 1:100 dilutions and a final concentration of 64 μg/mL and mixed.
as §5, §6, §7

ENA (URMC-1) = experiment: MIC determination; type: cell-based, Enterobacter aerogenes; details: Klebsiella aerogenes, CAMH broth, 20 μM Apo-Transferrin, 37° C., 18 hours, read-out: Minimum Inhibitory Concentrations, ENA (URMC-1)
Protocol: as §1, §2, §3, §4, §5, §6, §7

ENA (URMC-2) = experiment: MIC determination; type: cell-based, Enterobacter aerogenes; details: Klebsiella aerogenes, CAMH broth, 20 μM Apo-Transferrin, 37° C., 18 hours, read-out: Minimum Inhibitory Concentrations, ENA (URMC-2)
Protocol: as §1, §2, §3, §4, §5, §6, §7

PM (RR -1) = experiment: MIC determination; type: cell-based, Proteus mirabilis; details: CAMH broth, 20 μM Apo-Transferrin, 37° C., 18 hours
Protocol: as §1, §2, §3, §4, §5, §6, §7

[3] = test system: Pseudomonas aeruginosa PA (RR-1); experiment: MIC determination; type: cell-based; details: Pseudomonas aeruginosa; PA (RR-1); CAMH broth, 20 μM Apo-Transferrin, 37° C., 18 hours; read-out: Minimum Inhibitory Concentrations, PA (RR-1)
Outline: (§8)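 Growth inhibition was judged by well clarity after 18 h at 37 °C in transferrin-supplemented (20 μM apo form) CAMH. Standardized suspensions (0.08-0.1 OD600) were added within 30 min of preparation.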

[4] = test system: Pseudomonas aeruginosa (PA); experiment: MIC determination; type: cell-based; details: Pseudomonas aeruginosa; PA; CAMH broth, 20 μM Apo-Transferrin, 37° C., 18 hours; read-out: Minimum Inhibitory Concentrations, PA
Outline: as §8

[5] = test system: Pseudomonas aeruginosa PA-RR-(980151052); experiment: MIC determination; type: cell-based; details: Pseudomonas aeruginosa; PA-RR-(980151052); CAMH broth, 20 μM Apo-Transferrin, 37° C., 18 hours; read-out: Minimum Inhibitory Concentrations, PA-RR-(980151052)
Outline: as §8

[6] = test system: Pseudomonas aeruginosa PA-RR-(G8062859); experiment: MIC determination; type: cell-based; details: Pseudomonas aeruginosa; PA-RR-(G8062859); CAMH broth, 20 μM Apo-Transferrin, 37° C., 18 hours; read-out: Minimum Inhibitory Concentrations, PA-RR-(G8062859)
Outline: as §8

KP (URMC-1) = experiment: MIC determination; type: cell-based, Klebsiella pneumoniae; details: CAMH broth, 20 μM Apo-Transferrin, 37° C., 18 hours
Protocol: as §1, §2, §3, §4, §5, §6, §7

KP (RR -1) = experiment: MIC determination; type: cell-based, Klebsiella pneumoniae; details: CAMH broth, 20 μM Apo-Transferrin, 37° C., 18 hours
Protocol: as §1, §2, §3, §4, §5, §6, §7

KP (URMC-3) = experiment: MIC determination; type: cell-based, Klebsiella pneumoniae; details: CAMH broth, 20 μM Apo-Transferrin, 37° C., 18 hours
Protocol: as §1, §2, §3, §4, §5, §6, §7

KP (URMC-2) = experiment: MIC determination; type: cell-based, Klebsiella pneumoniae; details: CAMH broth, 20 μM Apo-Transferrin, 37° C., 18 hours
Protocol: as §1, §2, §3, §4, §5, §6, §7

CF (RR -1) = experiment: MIC determination; type: cell-based, Citrobacter freundii; details: CAMH broth, 20 μM Apo-Transferrin, 37° C., 18 hours
Protocol: as §1, §2, §3, §4, §5, §6, §7

Row | SMILES | Minimum Inhibitory Concentrations, KP(ATCC TEM-10/TEM-12) (KP(ATCC TEM-10/TEM-12)) [microgram/mL] | MIC [2] [mg/L] | MIC (A. baumannii) [mg/L] | MIC (EC(JMI OXA-48)) [mg/L] | Minimum Inhibitory Concentrations, KP (ATCC KPC-3) (KP (ATCC KPC-3)) [microgram/mL] | Minimum Inhibitory Concentrations, KP(JMI KPC-2) (KP(JMI KPC-2)) [microgram/mL] | Minimum Inhibitory Concentrations, KP(GJ 5934 TEM-26) (KP(GJ 5934 TEM-26)) [microgram/mL] | Minimum Inhibitory Concentrations, KP (GJ 5659 TEM-26) (KP (GJ 5659 TEM-26)) [microgram/mL] | Mimimum Inhibitory Concentrations, ENC (ATCC NDM-1) (ENC (ATCC NDM-1)) [microgram/mL] | Mimimum Inhibitory Concentrations, EA (URMC -3) (EA (URMC -3)) [microgram/mL] | MIC (ENA (URMC-1)) [mg/L] | MIC (ENA (URMC-2)) [mg/L] | Mimimum Inhibitory Concentrations, PM (RR -1) (PM (RR -1)) [microgram/mL] | MIC [3] [mg/L] | MIC [4] [mg/L] | MIC [5] [mg/L] | MIC [6] [mg/L] | Minimum Inhibitory Concentrations, KP (URMC-1) (KP (URMC-1)) [microgram/mL] | Mimimum Inhibitory Concentrations, KP (RR -1) (KP (RR -1)) [microgram/mL] | Minimum Inhibitory Concentrations, KP (URMC-3) (KP (URMC-3)) [microgram/mL] | other results
1 | C#CC[N+]1(Cc2ccc(C=CC3=C(C(=O)O)N4C(=O)[C@@H](NC(=O)/C(=N\OC(C)(C)C(=O)O)c5csc(N)n5)[C@H]4SC3)cc2)CCc2cc(O)c(O)cc2C1 (mixture of isomers) [Compound 446, 2-(4-((E/Z)-2-((6R,7R)-7-((Z)-2-(2-aminothiazol-4-yl)-2-(((2-carboxypropan-2-yl)oxy)imino)acetamido)-2-carboxy-8-oxo-5-thia-1-azabicyclo[4.2.0]oct-2-en-3-yl)vinyl)benzyl)-6,7-dihydroxy-2-(prop-2-yn-1-yl)-1,2,3,4-tetrahydroisoquinolin-2-ium] | 16 | > 64 | 2 | 16 | 64 | 32 | 0.5 | 2 | >64 |  |  |  |  |  |  |  |  |  |  |  | MIC ([1]; Escherichia coli, 18 h, read-out: Mimimum Inhibitory Concentrations, IMP-1): 1 mg/L
2 | CC(C)(O/N=C(\C(=O)N[C@@H]1C(=O)N2C(C(=O)O)=C(C=Cc3ccc(C[N+]4(C)Cc5cc(O)c(O)c(Cl)c5C4)cc3)CS[C@H]12)c1csc(N)n1)C(=O)O (mixture of isomers) [Compound 432, 2-(4-((E/Z)-2-((6R,7R)-7-((Z)-2-(2-aminothiazol-4-yl)-2-(((2-carboxypropan-2-yl)oxy)imino)acetamido)-2-carboxy-8-oxo-5-thia-1-azabicyclo[4.2.0]oct-2-en-3-yl)vinyl)benzyl)-4-chloro-5,6-dihydroxy-2-methylisoindolin-2-ium] | 8 | > 64 | 1 | 0.5 | >64 | 64 | 0.13 | 1 | >64 | 0.5 | 1 | 0.25 | ≤0.06 | 1 | 0.25 | 0.25 | 0.5 | 0.13 | 0.25 | ≤0.06 | MICs for an E. coli strain carrying the gene for carbapenemase IMP-1, in words ([1]; review of Tables 4-1 and 4-2): low microgram/mL MICs; MICs for an Acinetobacter baumannii strain, in words (A. baumannii; review of Table 2): low microgram/mL MICs; Minimum Inhibitory Concentrations, KP (URMC-2) (KP (URMC-2)): ≤0.06 microgram/mL; Mimimum Inhibitory Concentrations, CF (RR -1) (CF (RR -1)): 0.5 microgram/mL
3 | CC(C)(O/N=C(\C(=O)N[C@@H]1C(=O)N2C(C(=O)O)=C(C=Cc3ccc(C[n+]4ccc(-c5ccc(O)c(O)c5)cc4)cc3)CS[C@H]12)c1csc(N)n1)C(=O)O (mixture of isomers) [Compound 412, 1-(4-((E/Z)-2-((6R,7R)-7-((Z)-2-(2-aminothiazol-4-yl)-2-(((2-carboxypropan-2-yl)oxy)imino)acetamido)-2-carboxy-8-oxo-5-thia-1-azabicyclo[4.2.0]oct-2-en-3-yl)vinyl)benzyl)-4-(3,4-dihydroxyphenyl)pyridin-1-ium] | 32 | > 64 | 8 | 2 | >64 | 64 | 0.5 | 2 | >64 | ≤0.06 | 0.25 | 0.13 | ≤0.06 | 4 | 2 | 4 | 1 | ≤0.06 | 0.5 | 0.25 | Minimum Inhibitory Concentrations, KP (URMC-2) (KP (URMC-2)): ≤0.06 microgram/mL; Mimimum Inhibitory Concentrations, CF (RR -1) (CF (RR -1)): ≤0.06 microgram/mL
